Assay results from patent publication US6444850B1, “Fungicidial compounds having a fluorovinyloxphyenyl moiety and process for the preparation thereof” (priority 1997, dated 2002).

Columns and labels:
Puccinia recondita = test: Fungicidal activity against wheat leaf rust (WLR) disease; type: in vivo; conditions: for C. V. (%), Fungicidal Activities against WLB at 10 ppm: Table 8 (Test Example 5); for C. V. (%) WLR: 50 ppm, control value, wheat leaf rust
Rhizoctonia solani AG-1 = test: Fungicidal activity against rice sheath blight (RSB) disease; conditions: 50 ppm, control value
Botrytis cinerae = test: Fungicidal activity against cucumber gray mold rot (CGM) disease; type: in vivo; conditions: 50 ppm, control value
[1] = tested on: Pyricularia oryzae Carvara KA301; type: in vivo; conditions: for C. V. (%) Fungicidal Activities against RCB at 10 ppm / C. V. (%) Fungicidal Activities against RCB at 10 ppm (TABLE 6): sprayed on Nakdong rice plant, control value from lesion area; for C. V. (%) RCB: 50 ppm, control value, rice blast
Phytophthora infestans = type: in vivo; conditions: 50 ppm; control value, tomato late blight
Erysiphae graminis = test: Fungicidal activity against barley powdery mildew (BPM) disease; type: in vivo; conditions: for C. V. (%), Fungicidal activities against TLB at 10 ppm: Table 9 (Test Example 6); for C. V. (%) BPM: 50 ppm, control value, barley powdery mildew

| Compound | C. V. (%), Fungicidal Activities against WLB at 10 ppm (Puccinia recondita) | C. V. (%) WLR (Puccinia recondita) | C. V. (%) RSB (Rhizoctonia solani AG-1) | C. V. (%) CGM (Botrytis cinerae) | C. V. (%) Fungicidal Activities against RCB at 10 ppm [1] | C. V. (%) Fungicidal Activities against RCB at 10 ppm (TABLE 6) [1] | C. V. (%) RCB [1] | C. V. (%) TLB (Phytophthora infestans) | C. V. (%), Fungicidal activities against TLB at 10 ppm (Erysiphae graminis) | C. V. (%) BPM (Erysiphae graminis) |
| --- | --- | --- | --- | --- | --- | --- | --- | --- | --- | --- |
| CNC(=O)C(=NOC)c1ccccc1COc1cccc(OC(F)=C(c2ccc(OC)cc2)C(F)(F)F)c1 [Compound 77] | 100% | 100% | 60% | 11% | 96% | 96% | 99% | 82% | 100% | 100% |
| CCOc1ccc(C(=C(F)Oc2cccc(OCc3ccccc3C(=COC)C(=O)OC)c2)C(F)(F)F)cc1 [Compound 78] | 97% | 98% | 40% | 0% | – | – | 0% | 0% | 100% | 100% |
| CCOc1ccc(C(=C(F)Oc2cccc(OCc3ccccc3C(=NOC)C(=O)OC)c2)C(F)(F)F)cc1 [Compound 79] | 96% | 100% | 55% | 7% | – | – | 0% | 18% | 99% | 100% |
| CCOc1ccc(C(=C(F)Oc2cccc(OCc3ccccc3C(=NOC)C(=O)NC)c2)C(F)(F)F)cc1 [Compound 80] | 100% | 100% | 0% | 0% | 95% | 95% | 100% | 0% | 100% | 100% |
| COC=C(C(=O)OC)c1ccccc1COc1cccc(OC(F)=C(c2ccc3c(c2)OCO3)C(F)(F)F)c1 [Compound 81] | 100% | 100% | 65% | 0% | – | – | 86% | 33% | 100% | 100% |
| CON=C(C(=O)OC)c1ccccc1COc1cccc(OC(F)=C(c2ccc3c(c2)OCO3)C(F)(F)F)c1 [Compound 82] | 96% | 98% | 45% | 0% | – | – | 50% | 0% | 97% | 100% |
| COC=C(C(=O)OC)c1ccccc1COc1cccc(OC(F)=C(c2cccc(C(F)(F)F)c2)C(F)(F)F)c1 [Compound 83] | 94% | 100% | 50% | 0% | – | – | 25% | 11% | 100% | 100% |
| COC=C(C(=O)OC)c1ccccc1COc1cccc(OC(F)=C(c2cccc(Cl)c2)C(F)(F)F)c1 [Compound 84] | 97% | 100% | 25% | 16% | 95% | 95% | 90% | 81% | 100% | 100% |
| CNC(=O)C(=COC)c1ccccc1COc1cccc(OC(F)=C(c2cccc(Cl)c2)C(F)(F)F)c1 [Compound 85] | – | 73% | 10% | 16% | – | – | 16% | 22% | – | 0% |
| CON=C(C(=O)OC)c1ccccc1COc1cccc(OC(F)=C(c2cccc(Cl)c2)C(F)(F)F)c1 [Compound 86] | 96% | 100% | 90% | 27% | – | – | 90% | 22% | 95% | 100% |
| CNC(=O)C(=NOC)c1ccccc1COc1cccc(OC(F)=C(c2cccc(Cl)c2)C(F)(F)F)c1 [Compound 87] | 100% | 100% | 0% | 0% | 100% | 100% | 100% | 0% | 100% | 100% |
| COC=C(C(=O)OC)c1ccccc1COc1cccc(OC(F)=C(c2ccc(Cl)cc2)C(F)(F)F)c1 [Compound 88] | 93% | 98% | 25% | 25% | – | – | 92% | 31% | 100% | 100% |
| CNC(=O)C(=COC)c1ccccc1COc1cccc(OC(F)=C(c2ccc(Cl)cc2)C(F)(F)F)c1 [Compound 89] | – | 33% | 25% | 22% | – | – | 0% | 33% | – | 0% |
| CON=C(C(=O)OC)c1ccccc1COc1cccc(OC(F)=C(c2ccc(Cl)cc2)C(F)(F)F)c1 [Compound 90] | – | 100% | 30% | 25% | 93% | 93% | 90% | 0% | 97% | 99% |
| CNC(=O)C(=NOC)c1ccccc1COc1cccc(OC(F)=C(c2ccc(Cl)cc2)C(F)(F)F)c1 [Compound 91] | 100% | 100% | 90% | 17% | 99% | 99% | 99% | 64% | 100% | 100% |
| COC=C(C(=O)OC)c1ccccc1COc1cccc(OC(F)=C(c2cccc(F)c2)C(F)(F)F)c1 [Compound 92] | 100% | 100% | 55% | 16% | – | – | 93% | 81% | 99% | 100% |
| CNC(=O)C(=COC)c1ccccc1COc1cccc(OC(F)=C(c2cccc(F)c2)C(F)(F)F)c1 [Compound 93] | – | 73% | 5% | 0% | – | – | 0% | 0% | – | 0% |
| CON=C(C(=O)OC)c1ccccc1COc1cccc(OC(F)=C(c2cccc(F)c2)C(F)(F)F)c1 [Compound 94] | 95% | 100% | 60% | 0% | – | – | 41% | 40% | 99% | 100% |
| CNC(=O)C(=NOC)c1ccccc1COc1cccc(OC(F)=C(c2cccc(F)c2)C(F)(F)F)c1 [Compound 95] | 100% | 100% | 72% | 0% | 100% | 100% | 100% | 0% | 100% | 100% |
| COC=C(C(=O)OC)c1ccccc1COc1cccc(OC(F)=C(c2ccc(F)cc2)C(F)(F)F)c1 [Compound 96] | 97% | 100% | 67% | 33% | 95% | 95% | 90% | 62% | 100% | 100% |
| CNC(=O)C(=COC)c1ccccc1COc1cccc(OC(F)=C(c2ccc(F)cc2)C(F)(F)F)c1 [Compound 97] | – | 83% | 10% | 11% | – | – | 0% | 22% | – | 33% |
| CON=C(C(=O)OC)c1ccccc1COc1cccc(OC(F)=C(c2ccc(F)cc2)C(F)(F)F)c1 [Compound 98] | 96% | 100% | 65% | 0% | – | – | 33% | 25% | 98% | 100% |
| CNC(=O)C(=NOC)c1ccccc1COc1cccc(OC(F)=C(c2ccc(F)cc2)C(F)(F)F)c1 [Compound 99] | 100% | 100% | 90% | 21% | 95% | 95% | 80% | 48% | 100% | 100% |
